In the assay the test system is 876862-298-R-J1-PDC complex spheroids, viability % test/control. The experiment in a line: Anticancer human tumor 876862-298-R-J1-PDC patient-derived endometrial carcinoma cell line growth inhibition [CLK]. To be noted: for viability, T/C: stronger effect = lower value. The text has this: A high-throughput screen of multi-cell type tumor spheroids was designed to identify active combinations of […] and targeted small molecules. Complex spheroids include a stromal component modeled by human endothelial cells (HUVEC) and fibroblasts modeled by human mesenchymal stem cells (MSCs). The concentration ranges selected for each drug and investigational agent were based upon clinically achievable concentrations if the clinical Cmax of the agent was known.
Compounds. The drugs and investigational agents: cirtuvivint (SM08502; NSC835563), CC-671 (NSC850746), vemurafenib (NSC761431), tapotoclax (NSC804041), sotorasib (NSC818433), adagrasib (NSC831453), MRTX-1133 (NSC836407), BAY2416964 (NSC825713), copanlisib (NSC816437), inavolisib (NSC800729), abemaciclib (NSC768073), osimertinib (NSC779217), entinostat (NSC756642), eltanexor (KPT-8602, NSC794443), venetoclax (NSC766270), ceralasertib (NSC777638), bortezomib (NSC756655), olaparib (NSC753686), talazoparib (NSC767125), alisertib (NSC759677), peposertib (NSC802822), gemcitabine (NSC613327), 5-fluorouracil (NSC19893), SN-38 (NSC673596), oxaliplatin (NSC266046), paclitaxel (NSC125973), and doxorubicin (NSC123127), were obtained from the National Cancer Institute (NCI) Developmental Therapeutics Program Chemical Repository. The FDA-approved anticancer drug set is available from the Developmental Therapeutics Program at https://dtp.cancer.gov/organization/dscb/obtaining/available plates.htm. […] The stock solutions were prepared in dimethyl sulfoxide (DMSO, Sigma-Aldrich, St. Louis, MO, cat. D2650), except for the platinum complexes which were prepared in saline (Quality Biological, Gaithersburg, MD, cat. 114-055-101), at 800-fold the tested concentration and stored at -70 degrees C prior to their use. All drugs and investigational agents were tested over a range starting from a high concentration at or near the clinical Cmax and decreasing in half-log increments. If the clinical Cmax for an agent had not been determined, the highest concentration tested was 10 microM.
Cell Culture. All cells were maintained in an incubator at 37 degrees C and 5% CO2 with 95% humidity. The PDC lines were cultured according to standard operating procedures established by the NCI PDMR. Briefly, all PDCs were thawed and cultured in Matrigel-coated flasks prepared with a working solution of 1X Ham's F-12 nutrient mix, without supplementation (Invitrogen, Waltham, MA, cat. 11765054), 100 U/mL penicillin-streptomycin (Invitrogen, cat. 15140122), and 2.5% Matrigel (Corning Inc., Corning, NY, cat. 354248) for the first three passages. The 947758-054-R-J2-PDC line was cultured in 6B/Colon 1A media, which includes advanced DMEM/F-12 (Thermo Fisher Scientific, cat. 12634028), 10 mM HEPES (Thermo Fisher Scientific, cat. 15630080), 1X GlutaMAX supplement (Thermo Fisher Scientific, cat. 35050061), 0.1 mg/mL primocin (InvivoGen, cat. ant-pm-2), 10% defined fetal bovine serum, heat inactivated (HyClone Laboratories Inc., cat. SH30070.03HI), 1.25 mM N-Acetyl-L-cysteine (Sigma-Aldrich, cat. A9165), 10 mM nicotinamide (Sigma-Aldrich, cat. N0636), 1X B-27 supplement (Thermo Fisher Scientific, cat. 17504044), 1X N-2 supplement (Thermo Fisher Scientific, cat. 17502048), and 10 microM Y-27632 dihydrochloride (Tocris Bioscience, cat. 1254). The 876862-298-R-J1-PDC was cultured in 6E media, which includes all 6B/Colon 1A media components plus 50% L-WRN conditioned media (ATCC, cat. CRL-3276), 50 ng/mL recombinant human EGF recombinant protein (hEGF; Thermo Fisher Scientific, cat. PHG0311), 10 ng/mL recombinant human fibroblast growth factor 10 (hGFG-10; PeproTech, cat. 100-26), 1 ng/mL recombinant human fibroblast growth factor 2 (hFGF-2; PeproTech, cat. 100-18B), and 1 µM prostaglandin E2 (PGE2; Tocris, cat. 2296). The 227483-062-R1-J1-PDC line was cultured in Panc media, containing all 6E components except hFGF-2, with the addition of 500 nM SB-431542 (Selleckchem, cat. S1067) and 10 nM gastrin (Tocris, cat. 3006). […]

“And” between values parts separate entries of the source, which are not always exact repeats. Equal values may be shown once.
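Further: spheroids exposed to drugs for 7 days before readout.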
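Wherever viability, T/C is given: 100% = DMSO vehicle control wells.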

A word on the viability, T/C: it is the result in the treated group divided by that in the control group, in per cent. A word on the IC50: it is the midpoint of a concentration-inhibition curve. As to `CCN1CCN(Cc2ccc(Nc3ncc(F)c(-c4cc(F)c5nc(C)n(C(C)C)c5c4)n3)nc2)CC1`, the viability, T/C is 91.2% and 109% (compound 0.00316 µM); 86.9% and 101% (compound 0.01 µM); 86.5% and 84.8% (compound 0.0316 µM); 68.3% and 76.1% (compound 0.1 µM); 52.7% and 61.5% (compound 0.316 µM); 46.3% and 48.5% (compound 1 µM). Moreover, the 50% inhibitory concentration (IC50) (curve of compound) is 483 nM and 891 nM.

`CCc1c2c(nc3ccc(O)cc13)-c1cc3c(c(=O)n1C2)COC(=O)[C@]3(O)CC`: the viability, T/C is 48% and 36.5% (compound 0.00316 µM); 9.1% and 7.37% (compound 0.01 µM); 6.83% and 6.05% (compound 0.0316 µM); 5.12% and 5.99% (compound 0.1 µM); 3.64% and 4.64% (compound 0.316 µM); 2.58% and 4.7% (compound 1 µM). Further, the IC50 (curve of compound) was less than 3.16 nM.

`CN1CCN(c2cc(C(=O)Nc3cc4cc(-c5cnn(C)c5)ccc4cn3)ccn2)CC1`: the viability, T/C (compound 0.0316 µM) is 95.1% [middle of 12 runs]; the viability, T/C (compound 0.1 µM) was 49.8% [middle of 12 runs]; the viability, T/C (compound 0.316 µM) is 3.46% [middle of 12 runs]; the viability, T/C (compound 1 µM) was 1.68% [middle of 12 runs]; the viability, T/C (compound 3.16 µM) is 1.49% [middle of 12 runs]; the viability, T/C (compound 10 µM) is 1.35% [middle of 12 runs]. Moreover, where the note is “compound alone, run of 09/18/2023”, the IC50 is 99.4 nM [middle of 12 runs].

In the case of `CNC(=O)c1ccc(Nc2nc(OC3CCCC3)c3c(-c4ccc5nc(C)oc5c4)c[nH]c3n2)c(OC)c1`, the viability, T/C was 86% [middle of 12 runs] (compound 0.0316 µM); 49.5% [middle of 12 runs] (compound 0.1 µM); 37.8% [middle of 12 runs] (compound 0.316 µM); 28.6% [middle of 12 runs] (compound 1 µM); 24.6% [middle of 12 runs] (compound 3.16 µM); 23.1% [middle of 12 runs] (compound 10 µM). Moreover, the IC50 (compound alone, run of 09/19/2023) was 112 nM [middle of 11 runs].

In the case of `COC1C=CCC(C)C(C)S(=O)(=O)NC(=O)c2ccc3c(c2)N(CC2CCC21)CC1(CCCc2cc(Cl)ccc21)CO3` (stereo unspecified), the viability, T/C was 112% and 102% (compound 0.0316 µM); 97.2% and 97.7% (compound 0.1 µM); 102% and 97.5% (compound 0.316 µM); 107% and 99.3% (compound 1 µM); 109% and 99.7% (compound 3.16 µM); 38.3% and 29.6% (compound 10 µM). The IC50 (curve of compound) is 8200 nM and 7140 nM.

In the case of `COc1c(OCCCN2CCOCC2)ccc2c3n(c(=NC(=O)c4cnc(N)nc4)nc12)CCN3`, the viability, T/C reads like this: (compound 0.00316 µM) 105% and 81.8%; (compound 0.01 µM) 89.7% and 83.9%; (compound 0.0316 µM) 70.9% and 57%; (compound 0.1 µM) 37.8% and 26.3%; (compound 0.316 µM) 17% and 14.9%; (compound 1 µM) 15% and 16%. Besides, the IC50 (curve of compound) was 63.5 nM and 42.1 nM.

With `Cn1ncnc1[C@H]1c2n[nH]c(=O)c3cc(F)cc(c23)N[C@@H]1c1ccc(F)cc1`, the viability, T/C runs as follows: (compound 0.000316 µM) 110% and 102%; (compound 0.001 µM) 91.2% and 96.9%; (compound 0.00316 µM) 106% and 96.8%; (compound 0.01 µM) 103% and 105%; (compound 0.0316 µM) 107% and 114%; (compound 0.1 µM) 107% and 101%. Besides, for the setting “curve of compound”, the IC50 is more than 100 nM.

With `NC(=O)C(=Cn1cnc(-c2cc(C(F)(F)F)cc(C(F)(F)F)c2)n1)c1cncnc1`, the viability, T/C is 78% and 78.2% (compound 0.00949 µM); 54.1% and 60.3% (compound 0.03 µM); 37.5% and 38.2% (compound 0.0949 µM); 33.6% and 27.7% (compound 0.3 µM); 24.4% and 18.7% (compound 0.949 µM); 13.4% and 12.4% (compound 3 µM). Also, the IC50 (curve of compound) is 47.3 nM and 52.2 nM.

Values taken from PubChem BioAssay AID2060607 (Molecular Pharmacology Branch, DTP, NCI, 2025).
